Measured values reported in paper PMC9065260 (Frontiers in Pharmacology, 2022).

How the values were obtained:
KYSE70 cells = assay: MTT assay for cell proliferation and cytotoxicity; assay type: cell-based; details: Homo sapiens, KYSE-70; MTT, 48 h, mean ± SD; read-out: IC50 KYSE70
Protocol: (§1) The compounds were dissolved in DMSO to make a 50 mM stock solution and were diluted to the concentration of working solutions with the complete growth medium before administration.
(§2) Cells were seeded in 96-well plates with densities of 2,200–2,500 cells/well in 100 μL. One day after seeding, the concentration of the test compounds between 0 and 50 μM, 0.1% DMSO was added to cells as control. […] After 48 h, MTT was added and incubated in the plate for 1–4 h in the incubator.

KYSE410 cells = assay: MTT assay for cell proliferation and cytotoxicity; assay type: cell-based; details: Homo sapiens, KYSE-410; MTT, 48 h, mean ± SD; read-out: IC50 KYSE410
Protocol: as §1, §2

KYSE450 cells = assay: MTT assay for cell proliferation and cytotoxicity; assay type: cell-based; details: Homo sapiens, KYSE-450; MTT, 48 h, mean ± SD; read-out: IC50 KYSE450
Protocol: as §1, §2

H1650 cells = assay: MTT assay for cell proliferation and cytotoxicity; assay type: cell-based; details: Homo sapiens, NCI-H1650; MTT, 48 h, mean ± SD; read-out: IC50 H1650
Protocol: as §1, §2

HCC827 cells = assay: MTT assay for cell proliferation and cytotoxicity; assay type: cell-based; details: Homo sapiens, 48 h, mean ± SD
Protocol: as §1, §2

[1] = system: human esophageal epithelial cell SHEE; assay: MTT assay, toxicity against normal cells; assay type: cell-based; details: MTT, normal human esophageal epithelial cells, mean ± SD, read-out: IC50 SHEE
Protocol: Cells were seeded in 96-well plates with densities of 2,200–2,500 cells/well in 100 μL. One day after seeding, the concentration of the test compounds between 0 and 50 μM, 0.1% DMSO was added to cells as control. Approximately 2200-2500 transfected cells in 100 μL were incubated in quintuplicate in 96-well plates. After 48 h, MTT was added and incubated in the plate for 1–4 h in the incubator.

| melting point | Structure (SMILES) | IC50 (KYSE70 cells) | IC50 (KYSE410 cells) | IC50 (KYSE450 cells) | IC50 (H1650 cells) | IC50 (HCC827 cells) | IC50 [1] |
| --- | --- | --- | --- | --- | --- | --- | --- |
| 98 to 101 °C | COCCOc1cc2ncnc(Nc3cccc(-c4cn(-c5cccc([N+](=O)[O-])c5)nn4)c3)c2cc1OCCOC [Compound 3m, [6,7-Bis-(2-Methoxy-Ethoxy)-Quinazolin-4-yl]-{3-[1-(3-Nitro-Phenyl)-1H-(1,2,3)Triazol-4-yl]-Phenyl}-Amine] | 3.92 ± 0.15 µM | 5.85 ± 0.2 µM | 4.05 ± 0.21 µM | 4.27 ± 0.19 µM | 8.44 ± 0.37 µM | > 50 µM |
| 83 to 86 °C | COCCOc1cc2ncnc(Nc3cccc(-c4cn(-c5ccccc5F)nn4)c3)c2cc1OCCOC [Compound 3f, [6,7-Bis-(2-Methoxy-Ethoxy)-Quinazolin-4-yl]-{3-[1-(2-Fluoro-Phenyl)-1H-(1,2,3)Triazol-4-yl]-Phenyl}-Amine] | > 50 µM | > 50 µM | 34.2 ± 3.01 µM | > 50 µM | 17.8 ± 1.61 µM | 12.1 ± 1.33 µM |
| 105 to 108 °C | COCCOc1cc2ncnc(Nc3cccc(-c4cn(-c5ccc(Br)cc5)nn4)c3)c2cc1OCCOC [Compound 3j, [6,7-Bis-(2-Methoxy-Ethoxy)-Quinazolin-4-yl]-{3-[1-(4-Bromo-Phenyl)-1H-(1,2,3)Triazol-4-yl]-Phenyl}-Amine] | 3.72 ± 0.33 µM | > 50 µM | 3.6 ± 0.27 µM | 4.98 ± 0.17 µM | 6.27 ± 0.42 µM | 7.2 ± 0.63 µM |
| 85 to 88 °C | COCCOc1cc2ncnc(Nc3cccc(-c4cn(-c5ccc(OC)cc5OC)nn4)c3)c2cc1OCCOC [Compound 3q, [6,7-Bis-(2-Methoxy-Ethoxy)-Quinazolin-4-yl]-{3-[1-(2,4-Dimethoxy-Phenyl)-1H-(1,2,3)Triazol-4-yl]-Phenyl}-Amine] | > 50 µM | 12.3 ± 0.93 µM | > 50 µM | > 50 µM | > 50 µM | 28.1 ± 2.47 µM |
| 87 to 90 °C | COCCOc1cc2ncnc(Nc3cccc(-c4cn(-c5ccccc5OC)nn4)c3)c2cc1OCCOC [Compound 3k, [6,7-Bis-(2-Methoxy-Ethoxy)-Quinazolin-4-yl]-{3-[1-(2-Methoxy-Phenyl)-1H-[1,2,3]Triazol-4-yl]-Phenyl}-Amine] | 16 ± 1.53 µM | 32 ± 3.25 µM | 20 ± 2.25 µM | 16 ± 1.69 µM | 6.18 ± 0.61 µM | 10.3 ± 0.96 µM |
| 93 to 96 °C | COCCOc1cc2ncnc(Nc3cccc(-c4cn(Cc5ccccc5I)nn4)c3)c2cc1OCCOC [Compound 3b, [6,7-Bis-(2-Methoxy-Ethoxy)-Quinazolin-4-yl]-{3-[1-(2-Iodo-Benzyl)-1H-(1,2,3)Triazol-4-yl]-Phenyl}-Amine] | 9.03 ± 0.82 µM | 17.6 ± 1.37 µM | 20.6 ± 1.87 µM | > 50 µM | > 50 µM | 8.05 ± 0.71 µM |
| 88 to 91 °C | COCCOc1cc2ncnc(Nc3cccc(-c4cn(-c5ccc(F)cc5)nn4)c3)c2cc1OCCOC [Compound 3g, [6,7-Bis-(2-Methoxy-Ethoxy)-Quinazolin-4-yl]-{3-[1-(4-Fluoro-Phenyl)-1H-(1,2,3)Triazol-4-yl]-Phenyl}-Amine] | 5.46 ± 0.23 µM | > 50 µM | 44.5 ± 4.23 µM | 29.6 ± 2.18 µM | > 50 µM | 8.01 ± 0.83 µM |
|  | COCCOc1cc2ncnc(Nc3cccc(-c4cn(-c5ccccc5)nn4)c3)c2cc1OCCOC [Compound 3o, [6,7-Bis-(2-Methoxy-Ethoxy)-Quinazolin-4-yl]-[3-(1-Phenyl-1H-(1,2,3)Triazol-4-yl)-Phenyl]-Amine] | > 50 µM | 49.5 ± 5.01 µM | 46.8 ± 4.63 µM | > 50 µM | > 50 µM | 14.2 ± 1.61 µM |
| 100 to 103 °C | COCCOc1cc2ncnc(Nc3cccc(-c4cn(-c5ccc(C)cc5O)nn4)c3)c2cc1OCCOC [Compound 3r, 2-(4-{3-[6,7-Bis-(2-Methoxy-Ethoxy)-Quinazolin-4-Ylamino]-Phenyl}-(1,2,3)Triazol-1-yl)-5-Methyl-Phenol] | 5.85 ± 0.52 µM | 8.74 ± 0.74 µM | 8.2 ± 0.67 µM | 4.32 ± 0.27 µM | 12.4 ± 1.07 µM | > 50 µM |
| 94 to 97 °C | COCCOc1cc2ncnc(Nc3cccc(-c4cn(Cc5ccccc5Br)nn4)c3)c2cc1OCCOC [Compound 3c, [6,7-Bis-(2-Methoxy-Ethoxy)-Quinazolin-4-yl]-{3-[1-(2-Bromo-Benzyl)-1H-(1,2,3)Triazol-4-yl]-Phenyl}-Amine] | 5.35 ± 0.34 µM | > 50 µM | 5.47 ± 0.29 µM | 5.72 ± 0.33 µM | > 50 µM | 22.4 ± 2.53 µM |
|  | COCCOc1cc2ncnc(Nc3cccc(-c4cn(-c5cccc(OC)c5)nn4)c3)c2cc1OCCOC [Compound 3e, [6,7-Bis-(2-Methoxy-Ethoxy)-Quinazolin-4-yl]-{3-[1-(3-Methoxy-Phenyl)-1H-(1,2,3)Triazol-4-yl]-Phenyl}-Amine] | 12.6 ± 1.01 µM | > 50 µM | 6.25 ± 0.35 µM | 21.1 ± 1.74 µM | > 50 µM | > 50 µM |
| 93 to 97 °C | COCCOc1cc2ncnc(Nc3cccc(-c4cn(-c5ccccc5Br)nn4)c3)c2cc1OCCOC [Compound 3i, [6,7-Bis-(2-Methoxy-Ethoxy)-Quinazolin-4-yl]-{3-[1-(2-Bromo-Phenyl)-1H-(1,2,3)Triazol-4-yl]-Phenyl}-Amine] | 36.1 ± 3.17 µM | > 50 µM | > 50 µM | > 50 µM | 24.2 ± 2.34 µM | 6.23 ± 0.62 µM |
| 109 to 112 °C | COCCOc1cc2ncnc(Nc3cccc(-c4cn(CCc5ccccc5)nn4)c3)c2cc1OCCOC [Compound 3s, [6,7-Bis-(2-Methoxy-Ethoxy)-Quinazolin-4-yl]-{3-[1-Phenethyl-1H-(1,2,3)Triazol-4-yl]-Phenyl}-Amine] | > 50 µM | > 50 µM | > 50 µM | > 50 µM | > 50 µM | 33.3 ± 3.43 µM |
| 110 to 114 °C | CCOc1cccc(-n2cc(-c3cccc(Nc4ncnc5cc(OCCOC)c(OCCOC)cc45)c3)nn2)c1 [Compound 3n, [6,7-Bis-(2-Methoxy-Ethoxy)-Quinazolin-4-yl]-{3-[1-(3-Ethoxy-Phenyl)-1H-(1,2,3)Triazol-4-yl]-Phenyl}-Amine] | > 50 µM | 49.7 ± 4.57 µM | 12.8 ± 1.25 µM | 35.4 ± 3.46 µM | 13.7 ± 1.34 µM | 22.6 ± 2.31 µM |
| 113 to 116 °C | COCCOc1cc2ncnc(Nc3cccc(-c4cn(-c5ccccc5C(F)(F)F)nn4)c3)c2cc1OCCOC [Compound 3p, [6,7-Bis-(2-Methoxy-Ethoxy)-Quinazolin-4-yl]-{3-[1-(2-Trifluoromethyl-Phenyl)-1H-(1,2,3)Triazol-4-yl]-Phenyl}-Amine] | > 50 µM | > 50 µM | 24.9 ± 2.16 µM | > 50 µM | 34.7 µM | > 50 µM |
| 95 to 98 °C | COCCOc1cc2ncnc(Nc3cccc(-c4cn(-c5ccc(C)cc5)nn4)c3)c2cc1OCCOC [Compound 3l, [6,7-Bis-(2-Methoxy-Ethoxy)-Quinazolin-4-yl]-[3-(1-p-Tolyl-1H-(1,2,3)Triazol-4-yl)-Phenyl]-Amine] | 11.1 ± 0.94 µM | > 50 µM | > 50 µM | 10 ± 0.79 µM | 4.61 ± 0.28 µM | 4.82 ± 0.32 µM |
| 131 to 134 °C | COCCOc1cc2ncnc(Nc3cccc(-c4cn(-c5ccccc5Cl)nn4)c3)c2cc1OCCOC [Compound 3h, [6,7-Bis-(2-Methoxy-Ethoxy)-Quinazolin-4-yl]-{3-[1-(2-Chloro-Phenyl)-1H-(1,2,3)Triazol-4-yl]-Phenyl}-Amine] | > 50 µM | > 50 µM | > 50 µM | > 50 µM | > 50 µM | 6.03 ± 0.57 µM |
| 89 to 92 °C | COCCOc1cc2ncnc(Nc3cccc(-c4cn(Cc5ccccc5)nn4)c3)c2cc1OCCOC [Compound 3a, {3-[1-Benzyl-1H-(1,2,3)Triazol-4-yl]-Phenyl}-[6,7-Bis-(2-Methoxy-Ethoxy)-Quinazolin-4-yl]-Amine] | 5.85 ± 0.28 µM | 9.7 ± 0.75 µM | 5.27 ± 0.31 µM | 34 ± 2.77 µM | > 50 µM | > 50 µM |
